From ChEMBL document CHEMBL1629458, “Synthesis of phosphatidylinositol 3-kinase (PI3K) inhibitory analogues of the sponge meroterpenoid liphagal” (J Med Chem, 2010) come the findings set out here.

Assay [1] has as its target Phosphatidylinositol 4,5-bisphosphate 3-kinase catalytic subunit alpha isoform (Homo sapiens, UniProt P42336). Briefly: Inhibition of human PI3Kalpha expressed in Sf9 cells by fluorescent polarization assay.
For assay [2], the target named is Phosphatidylinositol 4,5-bisphosphate 3-kinase catalytic subunit gamma isoform (Homo sapiens, UniProt P48736). Briefly: Inhibition of human PI3Kgamma expressed in Sf9 cells by fluorescent polarization assay.
The species entered for a further assay is Homo sapiens. Briefly: Selectivity for human PI3Kalpha over human PI3Kgamma.

Each structure is given as a SMILES string.

Phosphatidylinositol 4,5-bisphosphate 3-kinase catalytic subunit alpha isoform, sequence (P42336 whole entry, canonical isoform): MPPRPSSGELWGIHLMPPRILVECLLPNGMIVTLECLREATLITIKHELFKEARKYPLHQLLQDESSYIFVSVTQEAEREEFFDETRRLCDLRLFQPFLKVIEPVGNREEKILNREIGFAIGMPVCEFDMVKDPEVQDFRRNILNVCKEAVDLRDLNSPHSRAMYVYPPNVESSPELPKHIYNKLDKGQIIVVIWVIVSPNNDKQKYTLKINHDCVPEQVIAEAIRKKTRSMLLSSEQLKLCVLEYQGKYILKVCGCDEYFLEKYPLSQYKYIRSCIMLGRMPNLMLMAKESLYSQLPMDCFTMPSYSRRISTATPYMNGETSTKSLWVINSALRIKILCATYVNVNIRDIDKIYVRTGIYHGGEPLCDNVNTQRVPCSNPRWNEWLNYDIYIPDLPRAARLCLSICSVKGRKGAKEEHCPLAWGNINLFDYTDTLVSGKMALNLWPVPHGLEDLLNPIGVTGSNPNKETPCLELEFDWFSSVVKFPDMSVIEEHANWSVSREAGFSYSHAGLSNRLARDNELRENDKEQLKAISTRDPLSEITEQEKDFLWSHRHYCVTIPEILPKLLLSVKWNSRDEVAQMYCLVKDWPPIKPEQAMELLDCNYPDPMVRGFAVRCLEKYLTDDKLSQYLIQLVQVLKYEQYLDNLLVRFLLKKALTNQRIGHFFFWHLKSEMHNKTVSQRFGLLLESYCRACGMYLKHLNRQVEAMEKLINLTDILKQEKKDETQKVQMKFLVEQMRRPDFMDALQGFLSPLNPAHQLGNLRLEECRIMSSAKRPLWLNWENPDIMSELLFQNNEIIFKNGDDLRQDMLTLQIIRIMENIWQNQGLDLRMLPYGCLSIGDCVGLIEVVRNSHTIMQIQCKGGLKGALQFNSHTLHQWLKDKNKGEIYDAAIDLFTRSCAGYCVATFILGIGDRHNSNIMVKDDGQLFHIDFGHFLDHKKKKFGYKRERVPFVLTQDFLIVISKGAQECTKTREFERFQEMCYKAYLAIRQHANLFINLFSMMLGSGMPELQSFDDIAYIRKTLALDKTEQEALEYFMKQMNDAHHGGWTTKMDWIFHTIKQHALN
Phosphatidylinositol 4,5-bisphosphate 3-kinase catalytic subunit gamma isoform, sequence (P48736 whole entry, canonical isoform): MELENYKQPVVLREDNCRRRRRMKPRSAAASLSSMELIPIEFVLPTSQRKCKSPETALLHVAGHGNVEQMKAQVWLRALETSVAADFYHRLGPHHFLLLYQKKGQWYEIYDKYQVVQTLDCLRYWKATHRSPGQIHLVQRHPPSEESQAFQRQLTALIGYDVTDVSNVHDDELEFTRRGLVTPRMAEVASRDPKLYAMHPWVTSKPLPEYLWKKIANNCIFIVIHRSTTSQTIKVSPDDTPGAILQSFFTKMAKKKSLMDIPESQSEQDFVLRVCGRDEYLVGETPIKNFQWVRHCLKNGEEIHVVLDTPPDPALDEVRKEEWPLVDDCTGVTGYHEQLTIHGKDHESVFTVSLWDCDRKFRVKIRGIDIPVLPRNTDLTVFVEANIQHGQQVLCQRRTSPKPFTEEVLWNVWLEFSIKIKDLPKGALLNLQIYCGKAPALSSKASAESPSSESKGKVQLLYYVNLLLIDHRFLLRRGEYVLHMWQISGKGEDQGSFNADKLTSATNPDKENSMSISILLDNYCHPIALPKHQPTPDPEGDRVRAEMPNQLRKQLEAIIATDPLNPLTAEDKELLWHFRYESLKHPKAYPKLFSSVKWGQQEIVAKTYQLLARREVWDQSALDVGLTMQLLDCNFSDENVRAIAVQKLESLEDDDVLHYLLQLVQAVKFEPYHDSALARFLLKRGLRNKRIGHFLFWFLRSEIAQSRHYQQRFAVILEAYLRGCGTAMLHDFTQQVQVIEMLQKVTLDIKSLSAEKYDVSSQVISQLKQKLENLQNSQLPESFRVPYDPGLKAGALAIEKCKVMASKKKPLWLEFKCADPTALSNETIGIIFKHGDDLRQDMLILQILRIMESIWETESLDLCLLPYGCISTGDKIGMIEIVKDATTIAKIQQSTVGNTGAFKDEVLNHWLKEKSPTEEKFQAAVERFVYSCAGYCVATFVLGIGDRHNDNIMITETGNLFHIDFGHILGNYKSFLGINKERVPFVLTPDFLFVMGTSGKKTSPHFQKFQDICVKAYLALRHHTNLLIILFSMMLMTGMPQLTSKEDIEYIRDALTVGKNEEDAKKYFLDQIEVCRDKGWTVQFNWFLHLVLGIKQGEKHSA

As to `C[C@H]1CC[C@H]2C(C)(C)CCC[C@]2(C)c2c1oc1cc(O)ccc21`, the 50% inhibitory concentration (IC50) in assay [1] and in assay [2] was 2200 nM in each case.
`C[C@@H]1CC[C@H]2C(C)(C)CCC[C@]2(C)c2c1oc1c(C=O)c(O)c(O)cc21`: the values for the IC50 in assay [1] and in assay [2] were 100 nM and 1000 nM, respectively.
For `C[C@@H]1CC[C@H]2C(C)(C)CCC[C@]2(C)C2=C3C=C(O)C(=O)C(Br)=C3OC21O` (stereo partly drawn), the IC50 in assay [1] was 3300 nM; in assay [2], above 10000 nM.
With `COc1ccc2c3c(oc2c1Br)[C@H](C)CC[C@H]1C(C)(C)CCC[C@]31C`, the IC50 in assay [1] and in assay [2] was above 10000 nM each time.
For `C[C@@H]1CC[C@H]2C(C)(C)CCC[C@]2(C)c2c1oc1c(Br)c(O)ccc21`, the results for the IC50 in assay [1] and in assay [2] were 10200 nM and 5700 nM, respectively.
On the same counts, the results for `C[C@@H]1CC[C@H]2C(C)(C)CCC[C@]2(C)c2c1oc1ccc(O)cc21` are 7200 nM and 1900 nM.
As to `C[C@@H]1CC[C@H]2C(C)(C)CCC[C@]2(C)c2c1oc1cc(O)ccc21`, the IC50 in assay [1] and in assay [2] was above 10000 nM each time.
In the case of `C[C@@H]1CCCC(C)(C)C12CC[C@H](C)c1oc3c(Br)c(O)c(O)cc3c12` (mixture of isomers), the Ratio IC50 in the assay listed under Homo sapiens is 7. In addition, the IC50 came to 700 nM in assay [1] and 5300 nM in assay [2].
`CC1(C)CCC[C@]2(C)C3=C4C=C(O)C(=O)C=C4OC3(O)CC[C@@H]12` (mixture of isomers): the values for the IC50 in assay [1] and in assay [2] were 1650 nM and 9570 nM, respectively.
On to `COc1cc2c3c(oc2c(C=O)c1OC)CC[C@H]1C(C)(C)CCC[C@]31C` (racemic), for which the figures for the IC50 in assay [1] and in assay [2] were 5120 nM and 2640 nM, respectively.
Regarding `CC1(C)CCC[C@]2(C)c3c(oc4c(C=O)c(O)c(O)cc34)CC[C@@H]12` (racemic), the Ratio IC50 in the assay filed under Homo sapiens was 27. Further, the half-inhibitory concentration (IC50) in assay [1] worked out at 66 nM; in assay [2] it was 1800 nM.
With `COc1cc2c3c(oc2c(C=O)c1O)CC[C@H]1C(C)(C)CCC[C@]31C` (racemic), the IC50 in assay [1] came out at 1000 nM; in assay [2] it was 5150 nM.
As for `CC1(C)CCC[C@]2(C)c3c(oc4c(C(N)=O)c(O)c(O)cc34)CC[C@@H]12` (racemic), the figures for the half-inhibitory concentration (IC50) in assay [1] and in assay [2] were 700 nM and 1400 nM, respectively.
